Patent US10639287B2, “Compounds for the treatment of mitochondrial diseases” (UNIVERSITE PARIS-SUD, priority 2014, dated 2020)

How the values were obtained:
[1] = system: wild-type N2 BRISTOL line; settings: Caenorhabditis elegans, in vivo, 4 days
Protocol: A series of NGM dishes containing clofilium tosylate at concentrations of 1 μM, 5 μM, 10 μM, 50 μM, 100 μM or 200 μM were prepared (three dishes for each concentration). Between 30 and 40 synchronised L1 larvae of the wild-type N2 BRISTOL line or mutated VC1224 line (polg-1(ok1458Δ/+)/mT1 II; +/mT1 [dpy-10(el28)] II), these being nematodes carrying a heterozygous deletion of 2149 bp in the sequence encoding the polg-1 gene, were deposited on each of these dishes.

[2] = system: control fibroblasts and fibroblasts from a patient with a mutation on each allele of the POLG gene; assay: Maximum non-toxic concentration on fibroblast cultures (xCELLigence cell index); format: cell-based, human; settings: 140 h, 2.5-10 μM tested
Protocol: Skin fibroblasts from the control and from the patient were cultured in DMEM Galactose (DMEM free of glucose (Life Technologies) supplemented with 10 mM galactose, 10% foetal bovine serum, 200 U/mL penicillin, 200 U/mL streptomycin). Uridine (50 μg/mL) and sodium pyruvate (2.5 mM) were added to the culture medium to maintain the cells expressing a deficiency of the respiratory chain. The cells were incubated in a controlled atmosphere at 37° C. and 5% CO2.
Cell growth of patient and control fibroblasts was measured continuously for 140 h by use of an xCELLigence apparatus (ACEA Biosciences) in 96-well plates. The background noise of the signal was measured with 50 μL of culture medium per well. 50 μL of medium containing 1350 fibroblasts were then added to each well. The impedance measurement was taken every minute for 9 h and then every 15 minutes until the end of analysis.
Clofilium tosylate was diluted in 0.1% DMSO and used at different concentrations (2.5 μM, 5 μM, 10 μM) in a total volume of 50 μL. Toxic concentrations of clofilium tosylate were determined by adding the drug from the point of cell seeding. For each drug concentration and each control, the analysis was carried out in triplicate on 96-well plates. A mathematical algorithm was used to convert the impedance signal into cell index (CI). […]

Structure (SMILES): CCCCCCC[N+](CC)(CC)CCCCc1ccc(Cl)cc1.Cc1ccc(S(=O)(=O)[O-])cc1 [clofilium tosylate]
- concentration at which a halt in development at stage L3 or a slowdown in development was observed [1]: 100 µM
- maximum concentration to use [1]: 50 µM
- maximum approved (non-toxic) concentration [2]: 2.5 µM
